Experimental data taken from US12268725B2, “Composition of BL-8040” (BioLineRx Ltd., priority 2020, dated 2025).
Bridge positions count the residues as written; N and C are the ends. Square brackets hold non-standard residues; d marks the D form. * marks the point of attachment. 2Nal = N[C@@H](Cc1ccc2ccccc2c1)C(=O)O; Benzoyl(4-F) = O=C(c1ccc(F)cc1)*; Cit = NC(=O)NCCC[C@H](N)C(=O)O

Test system: neutrophil migration to peripheral blood
Assay: In vivo neutrophil migration to peripheral blood after injection
Settings: mice, single subcutaneous dose of 5 mg/kg BL-8040 in 200 μl PBS, bled 2 hours after injection, flow cytometry of mature neutrophils, increase relative to control mice
Description: In some of any of the respective embodiments, promotion of in vivo neutrophil migration to peripheral blood is determined by subcutaneously injecting mice with 5 mg/kg of BL-8040 (SEQ ID NO: 1), reconstituted in 200 μl of PBS, then bleeding the mice 2 hours after injection (e.g., by cardiac puncture into tubes with heparin) and quantifying the number of mature neutrophils in the peripheral blood (e.g., by flow cytometry) relative to control (untreated) mice.
BL-8040 (SEQ ID NO: 1) is an antagonist of the CXCR4 chemokine receptor. The induction of the cellular activity mediated by CXCR4 is responsible for the attachment of white blood cells to the bone marrow stromal cells. Inhibition of the CXCR4 activity (e.g., by BL-8040 (SEQ ID NO: 1)) is therefore expected to induce the detachment of the white blood cells (which include but are not limited to neutrophils) from the bone marrow stroma, and the subsequent migration of the cells to the peripheral blood. […]
Mice were subcutaneously injected with a single dose of 5 mg/kg of BL-8040 (SEQ ID NO: 1), reconstituted in 200 μl of PBS. […] Flow cytometry was used to evaluate the number of mature neutrophils in the peripheral blood, and the increase relative to control mice was calculated.

“Reference Example 1: BL-8040 prepared on Rink amide resin with HOBt/TBTU coupling and iodine cyclization; lacks the RRT 0.87 and 0.72 compounds ({Benzoyl(4-F)}-RR[2Nal]CY[Cit]K[dK]PYR[Cit]CR-NH2; disulfide 4-13 (inferred))” was tested, and the “Fold increase in neutrophil number” value was 5.6.
